The conditions of series [1]: Crystal; DTA.
The nature of series [2]: Molar enthalpy of transition or fusion. The settings on record: Crystal; DSC.

Numbers after ± are expanded uncertainties.

Here are results for one compound from the NIST ThermoML archive (doi:10.1021/je1011136).

Turning to `COc1cc(CNC(=O)CCCCCCC(C)C)ccc1O` [N-(4-hydroxy-3-methoxybenzyl)-8-methylnonanamide], the Normal melting temperature in series [1] came to 59.4 ± 1.1 °C. Moreover, in series [2], the “Molar enthalpy of transition or fusion” value worked out at 4.54 ± 0.136 kcal/mol.
